Results on 13 compounds are retold here after patent US4303785A, “Antitumor anthracycline antibiotics” (priority 1978, dated 1981).

The experiment relates to L1210 cells. Put plainly: animal or person. Conditions: for response vs control in vivo at 0.15 mg/kg / response vs control in vivo at 0.31 mg/kg / response vs control in vivo at 0.625 mg/kg / response vs control in vivo at 1.25 mg/kg / response vs control in vivo at 2.5 mg/kg / response vs control in vivo at 5 mg/kg: Mus musculus, L1210, ip, 1080 h; for response vs control in vivo at 1.25 mg/kg: read-out: Antitumor Activity (T/C, prolongation rate of survival day), 1.25 mg/kg/day i.p., once daily for 10 days; for response vs control in vivo at 2.5 mg/kg: read-out: Antitumor Activity (T/C, prolongation rate of survival day), 2.5 mg/kg/day i.p., once daily for 10 days; for response vs control in vivo at 5 mg/kg: read-out: Antitumor Activity (T/C, prolongation rate of survival day), 5 mg/kg/day i.p., once daily for 10 days. Type of experiment: in vivo, CDF1 mice. As to the method:
D. Representative compounds of general formula I" were tested against experimental animal tumors as follows: […]
CDF1 mice were administered intraperitoneally (i.p.) with 1×10^5 cells/mouse of L1210 cells. After 24 hours had elapsed since inoculation, the mice were administered the test compounds intraperitoneally once daily for 10 consecutive days and observed for a 45 day period.
The antitumor activity was shown by the prolongation rate of survival day (T/C, %) to the survival day of control mice injected with physiological saline.

Setting [1] is: 1.25 mg/kg/day i.p., once daily for 10 days.
Setting [2] is: 2.5 mg/kg/day i.p., once daily for 10 days.
[3] abbreviates: 5 mg/kg/day i.p., once daily for 10 days.
The mark [4] stands for this setting: read-out: Antitumor Activity (T/C, prolongation rate of survival day), 0.15 mg/kg/day i.p., once daily for 10 days.
Where [5] appears, read: read-out: Antitumor Activity (T/C, prolongation rate of survival day), 0.31 mg/kg/day i.p., once daily for 10 days.
The mark [6] stands for this setting: read-out: Antitumor Activity (T/C, prolongation rate of survival day), 0.625 mg/kg/day i.p., once daily for 10 days.
The mark [7] stands for this setting: 0.15 mg/kg/day i.p., once daily for 10 days.
Setting [8] is: 0.31 mg/kg/day i.p., once daily for 10 days.
[9] abbreviates: 0.625 mg/kg/day i.p., once daily for 10 days.

Like-named read-outs stand apart in the source and are kept apart here.

Turning to `COc1cccc2c1C(=O)c1c(O)c3c(c(O)c1C2=O)C[C@@](O)(C(=O)CO)C[C@@H]3O[C@H]1C[C@H](N)[C@H](OC2CCCO2)[C@H](C)O1` (stereo partly drawn) [Example 4, 4'-O-tetrahydrofuranyl adriamycin], the “Antitumor Activity (T/C, prolongation rate of survival day)” value (from here on “Antitumor Activity”) was 179% under setting [1], 360% under setting [2] and 314% under setting [3]. For the same compound, for the setting “0.15 mg/kg/day i.p., once daily for 10 days, read-out: Antitumor Activity (T/C, prolongation rate of survival day)”, the response vs control in vivo at 0.15 mg/kg is 105%. Also, the response vs control in vivo at 0.31 mg/kg (0.31 mg/kg/day i.p., once daily for 10 days, read-out: Antitumor Activity (T/C, prolongation rate of survival day)) was found to be 111%. For the same compound, the response vs control in vivo at 0.625 mg/kg (0.625 mg/kg/day i.p., once daily for 10 days, read-out: Antitumor Activity (T/C, prolongation rate of survival day)) stood at 136%.

`CCOC(C)O[C@@H]1[C@H](C)O[C@@H](O[C@H]2C[C@](O)(C(=O)CO)Cc3c(O)c4c(c(O)c32)C(=O)c2c(OC)cccc2C4=O)C[C@@H]1N` (single isomer, unassigned) [Example 7-a, 4'-O-(1-ethyloxyethyl) adriamycin a]: the response vs control in vivo at 1.25 mg/kg was 145%. Also, the “Antitumor Activity” value under setting [2] turned out to be 277%. For the same compound, the “Antitumor Activity” value under setting [3] is 108%. Besides, the response vs control in vivo at 0.15 mg/kg under setting [4] came out at 96%. Further, the response vs control in vivo at 0.31 mg/kg under setting [5] is 101%. In addition, the response vs control in vivo at 0.625 mg/kg under setting [6] was determined as 127%.

Take `COc1cccc2c1C(=O)c1c(O)c3c(c(O)c1C2=O)C[C@@](O)(C(=O)CO)C[C@@H]3O[C@H]1C[C@H](N)[C@H](OC(C)OCCCCCC(C)C)[C@H](C)O1` (single isomer, unassigned) [Example 10-b, 4'-O-(1-(6-methylheptyloxy)ethyl) adriamycin b]: the “Antitumor Activity” value is reported as 105% under setting [7]; 105% under setting [8]; 112% under setting [9]; 112% under setting [1]; 105% under setting [2]; 118% under setting [3].

As for `CCCCOC(C)O[C@@H]1[C@H](C)O[C@@H](O[C@H]2C[C@](O)(C(=O)CO)Cc3c(O)c4c(c(O)c32)C(=O)c2c(OC)cccc2C4=O)C[C@@H]1N` (single isomer, unassigned) [Example 8-b, 4'-O-(1-butyloxyethyl) adriamycin b], the “Antitumor Activity” value runs as follows: under setting [7], 100%; under setting [8], 100%; under setting [9], 106%; under setting [1], 119%; under setting [2], 138%; under setting [3], 288%.

As for `COC(=O)C1CCCC(O[C@@H]2[C@H](C)O[C@@H](O[C@H]3C[C@](O)(C(C)=O)Cc4c(O)c5c(c(O)c43)C(=O)c3c(OC)cccc3C5=O)C[C@@H]2N)O1` (stereo partly drawn) [Example 15, 4'-O-(6-carbomethoxytetrahydropyranyl) daunomycin], the response vs control in vivo at 1.25 mg/kg came to 100%, the response vs control in vivo at 2.5 mg/kg came out at 106% and the response vs control in vivo at 5 mg/kg amounted to 131%. Besides, the response vs control in vivo at 0.15 mg/kg under setting [4] amounted to 100%. Under setting [5], the response vs control in vivo at 0.31 mg/kg came out at 100%. The response vs control in vivo at 0.625 mg/kg under setting [6] turned out to be 100%.

On to `CCOC(C)O[C@@H]1[C@H](C)O[C@@H](O[C@H]2C[C@](O)(C(=O)CO)Cc3c(O)c4c(c(O)c32)C(=O)c2c(OC)cccc2C4=O)C[C@@H]1N` (single isomer, unassigned) [Example 7-b, 4'-O-(1-ethyloxyethyl) adriamycin b], for which the “Antitumor Activity” value amounted to 108% under setting [7]; 108% under setting [8]; 127% under setting [9]; 157% under setting [1]; 151% under setting [2]; 211% under setting [3].

Consider `CCOC(C)O[C@@H]1[C@H](C)O[C@@H](O[C@H]2C[C@](O)(C(C)=O)Cc3c(O)c4c(c(O)c32)C(=O)c2c(OC)cccc2C4=O)C[C@@H]1N` (single isomer, unassigned) [Example 16-b, 4'-O-(1-ethyloxyethyl) daunomycin b], for which the “Antitumor Activity” value reads like this: under setting [7], 90%; under setting [8], 96%; under setting [9], 108%; under setting [1], 112%; under setting [2], 133%; under setting [3], 247%.

`COc1cccc2c1C(=O)c1c(O)c3c(c(O)c1C2=O)C[C@@](O)(C(C)=O)C[C@@H]3O[C@H]1C[C@H](N)[C@H](OC(C)OCC(C)C)[C@H](C)O1` (single isomer, unassigned) [Example 17-b, 4'-O-(1-isobutyloxyethyl) daunomycin b]: the “Antitumor Activity” value reads like this: under setting [7], 100%; under setting [8], 100%; under setting [9], 100%; under setting [1], 106%; under setting [2], 113%; under setting [3], 188%.

Regarding `COc1cccc2c1C(=O)c1c(O)c3c(c(O)c1C2=O)C[C@@](O)(C(=O)CO)C[C@@H]3O[C@H]1C[C@H](N)[C@H](OC(C)OCC(C)C)[C@H](C)O1` (single isomer, unassigned) [Example 9-b, 4'-O-(1-isobutyloxyethyl) adriamycin b], the “Antitumor Activity” value runs as follows: under setting [7], 99%; under setting [8], 118%; under setting [9], 105%; under setting [1], 118%; under setting [2], 158%; under setting [3], 303%.

`COc1cccc2c1C(=O)c1c(O)c3c(c(O)c1C2=O)C[C@@](O)(C(=O)CO)C[C@@H]3O[C@H]1C[C@H](N)[C@H](OC2CCCO2)[C@H](C)O1` (single isomer, unassigned) [Example 5-b, 4'-O-tetrahydrofuranyl adriamycin b]: the “Antitumor Activity” value is, setting by setting: under setting [7], 122%; under setting [8], 128%; under setting [9], 141%; under setting [1], 154%; under setting [2], 230%; under setting [3], 256%.

Take `CCCCOC(C)O[C@@H]1[C@H](C)O[C@@H](O[C@H]2C[C@](O)(C(C)=O)Cc3c(O)c4c(c(O)c32)C(=O)c2c(OC)cccc2C4=O)C[C@@H]1N` (single isomer, unassigned) [Example 18-a, 4'-O-(1-butyloxyethyl) daunomycin a]: the response vs control in vivo at 1.25 mg/kg amounted to 116%. Besides, the “Antitumor Activity” value under setting [2] was 116%. Also, the “Antitumor Activity” value under setting [3] was found to be 144%. Under setting [4], the response vs control in vivo at 0.15 mg/kg stood at 110%. The response vs control in vivo at 0.31 mg/kg under setting [5] is 103%. For the same compound, the response vs control in vivo at 0.625 mg/kg under setting [6] is 110%.

With `COc1cccc2c1C(=O)c1c(O)c3c(c(O)c1C2=O)C[C@@](O)(C(=O)CO)C[C@@H]3O[C@H]1C[C@H](N)[C@H](OC(C)OCCCCCC(C)C)[C@H](C)O1` (single isomer, unassigned) [Example 10-a, 4'-O-(1-(6-methylheptyloxy)ethyl) adriamycin a], the response vs control in vivo at 1.25 mg/kg worked out at 118%, the response vs control in vivo at 2.5 mg/kg turned out to be 125% and the response vs control in vivo at 5 mg/kg amounted to 125%. The response vs control in vivo at 0.15 mg/kg under setting [4] is 105%. Moreover, under setting [5], the response vs control in vivo at 0.31 mg/kg came out at 92%. The response vs control in vivo at 0.625 mg/kg under setting [6] was 99%.

As to `COc1cccc2c1C(=O)c1c(O)c3c(c(O)c1C2=O)C[C@@](O)(C(=O)CO)C[C@@H]3O[C@H]1C[C@H](N)[C@H](OC(C)OC2CCCCC2)[C@H](C)O1` (single isomer, unassigned) [Example 11-a, 4'-O-(1-cyclohexyloxyethyl) adriamycin a], the response vs control in vivo at 1.25 mg/kg was determined as 118% and the response vs control in vivo at 2.5 mg/kg came out at 125%. In addition, the “Antitumor Activity” value under setting [3] stood at 184%. Moreover, the response vs control in vivo at 0.15 mg/kg under setting [4] amounted to 105%. For the same compound, under setting [5], the response vs control in vivo at 0.31 mg/kg was 99%. Moreover, the response vs control in vivo at 0.625 mg/kg under setting [6] worked out at 105%.
